This is an account of results in patent publication US20250034171A1, “IMIDAZOPYRIDINE AMIDES AND RELATED COMPOUNDS FOR USE IN THE TREATMENT OF BACTERIAL INFECTIONS” (priority 2021, published 2025).

The test has as its system Mycobacterium tuberculosis strain H37Rv. The test is described as follows: Test 2: MIC determination against M. tuberculosis, resazurin fluorescence. The note with it: Test 2, M. tuberculosis H37Rv; for MIC90: read-out: Bacterial activity MIC90; for IC50: read-out: Bacterial activity pMIC50 (converted). The class given is cell-based. For orientation: Resazurin is reduced to fluorescent resorufin, in cell work by metabolically active cells.

[1] abbreviates: Mycobacterium tuberculosis, H37RV.

Values after ≈ are worked out from the molar mass of the structure shown. Read-outs that look alike come from different tables or passages of the source.

Consider `CCc1nc2ncc(C)cn2c1C(=O)NCc1cnc(-c2nc3n(n2)CCC(C(F)(F)F)C3)c(C)c1` (stereo not drawn) [Compound 46], for which, under setting [1], the MIC90 is > 0.5 µM and the IC50 is > 501000 pM.
The corresponding values for `O=C(NCc1cnc(-c2nc3n(n2)CCC(C(F)(F)F)C3)c(F)c1)c1c(C(F)(F)F)nc2ccccn12` (stereo not drawn) [Compound 47] are > 0.5 µM and > 501000 pM.
The corresponding values for `CCc1nc2ncc(OC)cn2c1C(=O)NCc1ccc(-c2nc3n(n2)CC[C@@H](C(F)(F)F)C3)cc1` [Compound 48] are 0.026 µM (≈ 0.013 µg/mL) and 8320 pM.
`CCc1nc2ccc(F)cn2c1C(=O)NCc1ccc(-c2nc3n(n2)CC[C@@H](C(F)(F)F)C3)cc1` [Compound 52]: under setting [1], the MIC90 worked out at 0.16 µM (≈ 0.0778 µg/mL) and the IC50 is 41700 pM.
In the same order, the values of `O=C(NCc1ccc(-c2nc3n(n2)CC[C@@H](C(F)(F)F)C3)cc1)c1c(C(F)(F)F)nc2ncccn12` [Compound 53] are 0.036 µM (≈ 0.0183 µg/mL) and 11000 pM.
With `O=C(NCc1ccc(-c2nc3n(n2)CC[C@@H](C(F)(F)F)C3)cc1)c1c(C(F)(F)F)nc2n1CCCC2` [Compound 54], under setting [1], the MIC90 stood at 0.22 µM (≈ 0.113 µg/mL) and the IC50 is 72400 pM.
In the same order, the values of `CCc1nc2ccccn2c1C(=O)NCc1ccc(-c2nc3n(n2)CC[C@@H](C(F)(F)F)C3)cc1` [Compound 55] are 0.0086 µM (≈ 0.00403 µg/mL) and 2950 pM.
The corresponding values for `CCc1nc2ccccn2c1C(=O)NCc1ccc(-c2nc3n(n2)CC[C@H](C(F)(F)F)C3)cc1` [Compound 57] are 0.022 µM (≈ 0.0103 µg/mL) and 6920 pM.
As for `O=C(NCc1ccc(-c2nc3n(n2)CC[C@H](C(F)(F)F)C3)cc1)c1c(C(F)(F)F)nc2n1CCCC2` [Compound 58], under setting [1], the MIC90 stood at 0.39 µM (≈ 0.2 µg/mL) and the IC50 is 95500 pM.
The corresponding values for `O=C(NCc1ccc(-c2nc3n(n2)CC[C@H](C(F)(F)F)C3)cc1)c1c(C(F)F)nc2ccccn12` [Compound 60] are 0.067 µM (≈ 0.0329 µg/mL) and 17400 pM.
In the same order, the values of `O=C(NCc1ccc(-c2nc3n(n2)CC[C@@H](C(F)(F)F)C3)cc1)c1c(C(F)F)nc2ccccn12` [Compound 61] are 0.036 µM (≈ 0.0177 µg/mL) and 11000 pM.
As to `CCc1nc2ccc(C(F)(F)F)cn2c1C(=O)NCc1ccc(-c2nc3n(n2)CC[C@@H](C(F)(F)F)C3)cc1` [Compound 63], under setting [1], the MIC90 was > 0.46 µM and the IC50 was > 224000 pM.
In the same order, the values of `CCc1nc2ccc(C(F)(F)F)cn2c1C(=O)NCc1ccc(-c2nc3n(n2)CC[C@H](C(F)(F)F)C3)cc1` [Compound 64] are > 0.5 µM and > 501000 pM.
For the compound `CCc1nc2ncc(OC(F)(F)F)cn2c1C(=O)NCc1ccc(-c2nc3n(n2)CC[C@H](C(F)(F)F)C3)cc1` [Compound 84], under setting [1], the MIC90 is > 0.38 µM and the IC50 is > 93300 pM.
In the same order, the values of `CCc1nc2ncc(OC(F)(F)F)cn2c1C(=O)NCc1ccc(-c2nc3n(n2)CC[C@@H](C(F)(F)F)C3)cc1` [Compound 85] are > 0.5 µM and > 501000 pM.
For `CCc1nc2ncccn2c1C(=O)NCc1ccc(-c2nc3n(n2)CC[C@@H](C(F)(F)F)C3)c(C)c1` [Compound 86], the “Bacterial activity pMIC50” value came out at 6.98 and the MIC90 is recorded as 0.44 µM (≈ 0.213 µg/mL).
In the same order, the values of `CCc1nc2ncccn2c1C(=O)NCc1ccc(-c2nc3n(n2)CC[C@H](C(F)(F)F)C3)c(C)c1` [Compound 87] are 6.97 and 0.47 µM (≈ 0.227 µg/mL).
Consider `CCc1nc2ncc(C)cn2c1C(=O)NCc1ccc(-c2cn3c(n2)CCCC3)cc1` [Compound 88], for which, under setting [1], the MIC90 stood at 0.099 µM (≈ 0.041 µg/mL) and the IC50 was 37200 pM.
As for `CCc1nc2nc(C)c(Cl)cn2c1C(=O)NCc1ccc(-c2cn3c(n2)CC(C(F)(F)F)CC3)cc1` (stereo not drawn) [Compound 90], under setting [1], the MIC90 is 0.15 µM (≈ 0.0775 µg/mL) and the IC50 was 60300 pM.
The corresponding values for `CCc1nc2nc(C)ccn2c1C(=O)NCc1ccc(-c2nc3n(n2)CCC(C)C3)cc1` (stereo not drawn) [Compound 92] are 0.2 µM (≈ 0.0859 µg/mL) and 61700 pM.
In the same order, the values of `CCc1nc2ncc(C)cn2c1C(=O)NCc1ccc(-c2nc3n(n2)CCC(F)C3)cc1` (stereo not drawn) [Compound 96] are 0.094 µM (≈ 0.0407 µg/mL) and 33900 pM.
The corresponding values for `CCc1nc2ncc(C)cn2c1C(=O)NCc1ccc(-c2nc3n(n2)CCC(C)C3)c(F)c1` (stereo not drawn) [Compound 97] are 0.057 µM (≈ 0.0255 µg/mL) and 19100 pM.
Consider `CCOC1CCn2nc(-c3ccc(CNC(=O)c4c(CC)nc5ncc(C)cn45)cc3)nc2C1` (stereo not drawn) [Compound 98], for which, under setting [1], the MIC90 stood at 0.11 µM (≈ 0.0506 µg/mL) and the IC50 was 27500 pM.
In the same order, the values of `CCc1nc2nc(C)ccn2c1C(=O)NCc1ccc(-c2nc3n(n2)CCC(C(F)F)C3)cc1` (stereo not drawn) [Compound 99] are 0.22 µM (≈ 0.102 µg/mL) and 70800 pM.
In the same order, the values of `Cc1cnc2nc(C(C)C)c(C(=O)NCc3ccc(-c4cn5c(n4)CC(C(F)(F)F)CC5)cc3)n2c1` (stereo not drawn) [Compound 100] are 0.2 µM (≈ 0.0993 µg/mL) and 61700 pM.
Turning to `O=C(NCc1cnc(-c2cn3c(n2)CC(C(F)(F)F)CC3)c(F)c1)c1c(C(F)(F)F)nc2ccccn12` (stereo not drawn) [Compound 101], under setting [1], the MIC90 turned out to be 3.95 µM (≈ 2.08 µg/mL) and the IC50 is 2e+06 pM.
The corresponding values for `CCc1nc2ncc(C)cn2c1C(=O)NCc1ccc(-c2nc3n(n2)CCC(OC)C3)c(F)c1` (stereo not drawn) [Compound 107] are 0.33 µM (≈ 0.153 µg/mL) and 135000 pM.
For `CCc1nc2ncc(C)cn2c1C(=O)NCc1ccc(-c2cn3c(n2)CC(CC)CC3)cc1` (stereo not drawn) [Compound 109], the “Bacterial activity pMIC50” value amounted to 8.04 and the MIC90 was 0.024 µM (≈ 0.0106 µg/mL).
On to `CCc1nc2ncc(C)cn2c1C(=O)NCc1ccc(-c2nc3n(n2)CCC(CC(F)(F)F)C3)cc1` (stereo not drawn) [Compound 110], for which, under setting [1], the MIC90 was determined as 0.016 µM (≈ 0.00796 µg/mL) and the IC50 is 5890 pM.
The corresponding values for `CCc1nc2ncc(OC)cn2c1C(=O)NCc1ccc(-c2cn3c(n2)C[C@H](C(F)(F)F)CC3)cc1` [Compound 111] are 0.012 µM (≈ 0.00598 µg/mL) and 4680 pM.
The corresponding values for `CCc1nc2ncc(OC)cn2c1C(=O)NCc1ccc(-c2cn3c(n2)C[C@@H](C(F)(F)F)CC3)cc1` [Compound 112] are 0.027 µM (≈ 0.0135 µg/mL) and 8510 pM.
The corresponding values for `CCc1nc2cc(F)ccn2c1C(=O)NCc1ccc(-c2cn3c(n2)C[C@@H](C(F)(F)F)CC3)cc1` [Compound 113] are 0.034 µM (≈ 0.0165 µg/mL) and 12900 pM.
Turning to `CCc1nc2cc(F)ccn2c1C(=O)NCc1ccc(-c2cn3c(n2)C[C@H](C(F)(F)F)CC3)cc1` [Compound 114], under setting [1], the MIC90 was determined as 0.032 µM (≈ 0.0155 µg/mL) and the IC50 is 7590 pM.
In the same order, the values of `CCc1nc2ncc(C)cn2c1C(=O)NCc1ccc(-c2nc3n(n2)CCC(C)(COC)C3)cc1` (stereo not drawn) [Compound 115] are 0.096 µM (≈ 0.0455 µg/mL) and 24500 pM.
The corresponding values for `CCc1nc2ncc(C)cn2c1C(=O)NCc1ccc(-c2cn3c(n2)CCC(C(F)(F)F)C3)cc1` (stereo not drawn) [Compound 116] are 0.0097 µM (≈ 0.00468 µg/mL) and 4570 pM.
The corresponding values for `CCc1nc2ncc(C)cn2c1C(=O)NCc1ccc(-c2cn3c(n2)CC(C(F)(F)F)CC3)c(F)c1` (stereo not drawn) [Compound 117] are 0.077 µM (≈ 0.0385 µg/mL) and 3090 pM.
In the case of `CCc1nc2ncc(OC)cn2c1C(=O)NCc1ccc(-c2nc3n(n2)CCCC3)cc1` [Compound 119], the “Bacterial activity pMIC50” value was determined as 7.72 and the MIC90 is given as 0.052 µM (≈ 0.0224 µg/mL).
As to `CCc1nc2ncc(C)cn2c1C(=O)NCc1ccc(-c2cn3c(n2)CC(C(F)(F)F)CC3)c(C)c1` (stereo not drawn) [Compound 121], under setting [1], the MIC90 came to 0.035 µM (≈ 0.0174 µg/mL) and the IC50 is 8710 pM.
Turning to `CCc1nc2ncc(C)cn2c1C(=O)NCc1cnc(-c2cn3c(n2)CC(C(F)(F)F)CC3)cc1C` (stereo not drawn) [Compound 122], under setting [1], the MIC90 was 0.21 µM (≈ 0.104 µg/mL) and the IC50 was 43700 pM.
In the same order, the values of `CCc1nc2ncc(C)cn2c1C(=O)NCc1cnc(-c2cn3c(n2)CC(C(F)(F)F)CC3)c(C)c1` (stereo not drawn) [Compound 123] are > 0.5 µM and > 501000 pM.
The corresponding values for `CCc1nc2ncc(C)cn2c1C(=O)NCc1ccc(-c2nc3n(n2)CC(C)CC3)cc1` (stereo not drawn) [Compound 125] are 0.04 µM (≈ 0.0172 µg/mL) and 11200 pM.
In the same order, the values of `CCc1nc2ccccn2c1C(=O)NCc1ccc(-c2nc3n(n2)CCC(C(C)(F)F)C3)cc1` (stereo not drawn) [Compound 133] are 0.051 µM (≈ 0.0237 µg/mL) and 11700 pM.
Consider `CCc1nc2n(c1C(=O)NCc1ccc(-c3nc4n(n3)CCC(C(C)(F)F)C4)cc1)CCCC2` (stereo not drawn) [Compound 134], for which, under setting [1], the MIC90 was determined as 0.12 µM (≈ 0.0562 µg/mL) and the IC50 was 25700 pM.
The corresponding values for `CCc1nc2nc(CN)ccn2c1C(=O)NCc1ccc(-c2nc3n(n2)CCC(C(F)(F)F)C3)cc1` (stereo not drawn) [Compound 138] are > 0.5 µM and > 501000 pM.
In the same order, the values of `CCc1nc2n(c1C(=O)NCc1ccc(-c3nc4n(n3)CC[C@@H](C(F)(F)F)C4)cc1)C[C@H](OC)CC2` [Compound 140] are 0.33 µM (≈ 0.166 µg/mL) and 115000 pM.
In the same order, the values of `CCc1nc2n(c1C(=O)NCc1ccc(-c3nc4n(n3)CC[C@H](C(F)(F)F)C4)cc1)C[C@H](OC)CC2` [Compound 141] are > 0.5 µM and 166000 pM.
Take `CCc1nc2n(c1C(=O)NCc1ccc(-c3cn4c(n3)C[C@@H](C(F)(F)F)CC4)cc1)CCCC2` [Compound 142]: under setting [1], the MIC90 was determined as 0.097 µM (≈ 0.0457 µg/mL) and the IC50 was 22900 pM.
The corresponding values for `CCc1nc2ncc(C)cn2c1C(=O)NCc1ccc(-c2nc3n(n2)CCC(COC)C3)c(F)c1` (stereo not drawn) [Compound 143] are 0.092 µM (≈ 0.0439 µg/mL) and 33100 pM.
In the case of `CCc1nc2cc(F)ccn2c1C(=O)NCc1ccc(-c2nc3n(n2)CCC(C(C)(F)F)C3)cc1` (stereo not drawn) [Compound 145], under setting [1], the MIC90 stood at 0.041 µM (≈ 0.0198 µg/mL) and the IC50 is 11500 pM.
In the same order, the values of `CCc1nc2ncc(C)cn2c1C(=O)NCc1ccc(-c2cc3n(n2)CCCC3)c(C)n1` [Compound 146] are 0.15 µM (≈ 0.0644 µg/mL) and 42700 pM.
For the compound `CCc1nc2ncc(C)cn2c1C(=O)NCc1ccc(-c2cn3c(n2)CC(C(F)F)CC3)cc1` (stereo not drawn) [Compound 147], the “Bacterial activity pMIC50” value is given as 7.82 and the MIC90 turned out to be 0.05 µM (≈ 0.0232 µg/mL).

Broadly, the MIC90 is an inhibitory concentration at the 90% level, which refers to growth in some studies and to a panel of isolates in others.
